Assay results from patent US11725015B2, “Macrocyclic compound and uses thereof” (President and Fellows of Harvard College, priority 2017, dated 2023).

Columns and labels:
[1] = test system: MES-SA (human uterine sarcoma); assay: In vitro antiproliferative activity, MES-SA; assay type: cell-based; details: 72 hours
Procedure: The in vitro antiproliferative assays for Compound (1) were conducted using a small panel of cancer cell lines including human squamous cell carcinoma of the esophagus (OE21, TE-8), human adenocarcinoma of the esophagus (OE33), and human uterine sarcoma (MES-SA, MES-SA-Dx5-Rx1). All cell lines were cultured in RPMI-1640 medium containing 10% FBS, and penicillin-streptomycin (culture medium), in a 5% CO2 incubator (37° C.). To each well of a 96 well plate (Becton, Dickinson and Company, 353219), 75 μL of cell suspension adjusted to a concentration of 4×10^4 cells/mL with the culture medium was added, and the cells were incubated overnight in a 5% CO2 incubator (37° C.). On the next day, 25 μL of Compound (1) in three-fold dilution series suspended in the culture medium was added to each well, and the resultant was incubated for 72 hours in a 5% CO2 incubator (37° C.). Then, cell viability was determined by CellTiter-Glo® Luminescent Cell Viability Assay (Promega) with 2013 EnVision™ Multilabel Reader (Perkin-Elmer, Wellesley, Mass.). Value of the wells containing cells without adding the test compounds was defined as 100% and the value of the wells containing no cells was defined as 0%. […] The P-gp susceptibility was calculated as the ratio of the IC50 value in MES-SA-Dx5-Rx1 cells, which overexpress P-gp, to the IC50 value in MES-SA cells.

[2] = test system: CD31-positive vessel in the FaDu subcutaneous model; assay: Effect on CD31-positive vessel in the FaDu subcutaneous model in mice (Test Example 18); assay type: in vivo; details: five days after
Procedure: A human squamous cell carcinoma of the head and neck (SCCHN) cell line FaDu, which had been cultured in an RPMI-1640 medium containing 10% FBS, and penicillin-streptomycin (culture medium), was adjusted to a concentration of 5×10^7 cells/mL with culture medium to prepare a cell suspension. The cell suspension was inoculated in a volume of 100 μL into a subcutaneous part of a right flank of nude mice, 6 weeks of ages (CAnN.Cg-Foxnlnu/CrlCrlj, female, Charles River Laboratories Japan, Inc.). Ten days after cell inoculation, the mice were grouped such that averages of the tumor volumes were substantially equal among the groups. The experiment was conducted on groups each consisting of 6 mice. Each test compound was dissolved in DMSO and a solution was stored in the freezer before use. Immediately before the administration, the stock solution was diluted with saline. The test compound in saline was intravenously administered at 20 μg/kg, […]. Five days after the single administration, tumor samples were collected and fixed with IHC Zinc Fixative (BD Pharmingen) at 4° C. for 24 hours. Paraffin-embedded tissues were sectioned (3 μm), mounted on positively charged slides, and air-dried. Immunohistochemical staining of CD31 was conducted using Ventana autostainer model Discover XT (Roche Diagnostics) according to the manufacture's protocol. Sections were deparaffinized, conditioned and the antigens were retrieved with CC1 (Ventana Medical Systems). […] The number of blood vessels in the whole tumor was quantified by counting the CD31-positive objects using inform 2 software (PerkinElmer Inc.) Area of the tumor region was measured by assessing the hematoxylin-staining area using inform 2 software (PerkinElmer Inc.) The number of blood vessels was normalized by the area of the tumor region. […] The ratios of blood vessel number in the test compound-dosing groups compared to non-treat group were calculated with the below formula: Tumor vessel ratio=blood vessel number of the test compound-dosing group/blood vessel number of the non-treat group)

C=C1C[C@@H]2CC[C@@]34C[C@H]5O[C@H]6[C@@H](O3)[C@H]3O[C@H](CC[C@@H]3O[C@H]6C5O4)CC(=O)O[C@@H]3[C@@H](C)[C@@H]4O[C@@H]5C[C@]6(C[C@@H]7O[C@]8(C[C@H](C)[C@@H]9O[C@H](CN)[C@H](O)C[C@@H]9O8)C[C@H](C)[C@@H]7O6)O[C@@H]5C[C@@H]4O[C@H]3C[C@H]3O[C@@H](CC[C@@H]1O2)C[C@@H](C)C3=C [Compound (1)]
antiproliferative activity [1]: potent antiproliferative agent | tumor blood vessel number ([2]; single administration 20 μg/kg): increased the tumor blood vessel number | tumor blood vessel number ([2]; single administration 60 μg/kg): increased the tumor blood vessel number | tumor blood vessel number ([2]; single administration 180 μg/kg): increased the tumor blood vessel number
